In ChEMBL document CHEMBL4673253, “Discovery of EST73502, a Dual μ-Opioid Receptor Agonist and σ Receptor Antagonist Clinical Candidate for the Treatment of Pain” (J Med Chem, 2020):
≈ marks a conversion by molar mass, not a printed value.

Columns and labels:
[1] = target: T1, Alpha-1A adrenergic receptor (Homo sapiens) (UniProt P35348); assay: Binding affinity to human alpha1A adrenoreceptor expressed in membranes assessed as inhibition of [3H]-prazosin binding incubated for 90 mins by scintillation counting method; parameters: concentration or dose not given beside the values; conditions: Cell membrane
T1 sequence (whole entry): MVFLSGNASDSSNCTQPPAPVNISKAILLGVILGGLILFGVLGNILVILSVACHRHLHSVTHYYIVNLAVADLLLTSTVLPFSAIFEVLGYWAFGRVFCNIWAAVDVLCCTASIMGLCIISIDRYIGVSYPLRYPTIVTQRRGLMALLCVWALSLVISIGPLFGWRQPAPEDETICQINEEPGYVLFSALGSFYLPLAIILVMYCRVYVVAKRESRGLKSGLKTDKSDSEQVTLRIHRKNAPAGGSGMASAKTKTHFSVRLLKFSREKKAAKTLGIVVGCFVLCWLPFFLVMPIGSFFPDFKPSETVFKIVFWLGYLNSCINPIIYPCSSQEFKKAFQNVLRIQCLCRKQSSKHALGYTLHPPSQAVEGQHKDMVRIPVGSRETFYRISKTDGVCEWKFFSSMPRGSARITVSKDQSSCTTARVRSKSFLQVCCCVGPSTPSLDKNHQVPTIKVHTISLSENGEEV

[2] = Thermodynamic solubility of compound at pH 7.4; type: physicochemical; conditions: buffer, read-out: Therm_solubility
[3] = system: HepG2; assay: Toxicity in human HepG2 cells assessed as reduction in cell viability up to 100 uM by neutral red uptake assay; type: cell-based
[4] = system: Mus musculus; assay: Antinociceptive activity in CD1 mouse at 10 to 40 mg/kg, po co-treated with 64 mg/kg, sc sigma1R agonist PRE-084 by paw pressure test; type: functional; conditions: dose 10-40 mg/kg
[5] = Intrinsic clearance in human liver microsomes; type: ADME, Microsome; conditions: read-out: CLH
[6] = Permeability in human Caco-2 cells; type: ADME, cell-based
[7] = target: hERG (KCNH2) (Homo sapiens, UniProt Q12809); assay: Inhibition of human ERG expressed in CHO cells at 10 uM at -80 mV holding potential by whole cell patch clamp assay; type: cell-based; conditions: CHO cells expressing human ERG
Chain of hERG (KCNH2) (Q12809 whole entry): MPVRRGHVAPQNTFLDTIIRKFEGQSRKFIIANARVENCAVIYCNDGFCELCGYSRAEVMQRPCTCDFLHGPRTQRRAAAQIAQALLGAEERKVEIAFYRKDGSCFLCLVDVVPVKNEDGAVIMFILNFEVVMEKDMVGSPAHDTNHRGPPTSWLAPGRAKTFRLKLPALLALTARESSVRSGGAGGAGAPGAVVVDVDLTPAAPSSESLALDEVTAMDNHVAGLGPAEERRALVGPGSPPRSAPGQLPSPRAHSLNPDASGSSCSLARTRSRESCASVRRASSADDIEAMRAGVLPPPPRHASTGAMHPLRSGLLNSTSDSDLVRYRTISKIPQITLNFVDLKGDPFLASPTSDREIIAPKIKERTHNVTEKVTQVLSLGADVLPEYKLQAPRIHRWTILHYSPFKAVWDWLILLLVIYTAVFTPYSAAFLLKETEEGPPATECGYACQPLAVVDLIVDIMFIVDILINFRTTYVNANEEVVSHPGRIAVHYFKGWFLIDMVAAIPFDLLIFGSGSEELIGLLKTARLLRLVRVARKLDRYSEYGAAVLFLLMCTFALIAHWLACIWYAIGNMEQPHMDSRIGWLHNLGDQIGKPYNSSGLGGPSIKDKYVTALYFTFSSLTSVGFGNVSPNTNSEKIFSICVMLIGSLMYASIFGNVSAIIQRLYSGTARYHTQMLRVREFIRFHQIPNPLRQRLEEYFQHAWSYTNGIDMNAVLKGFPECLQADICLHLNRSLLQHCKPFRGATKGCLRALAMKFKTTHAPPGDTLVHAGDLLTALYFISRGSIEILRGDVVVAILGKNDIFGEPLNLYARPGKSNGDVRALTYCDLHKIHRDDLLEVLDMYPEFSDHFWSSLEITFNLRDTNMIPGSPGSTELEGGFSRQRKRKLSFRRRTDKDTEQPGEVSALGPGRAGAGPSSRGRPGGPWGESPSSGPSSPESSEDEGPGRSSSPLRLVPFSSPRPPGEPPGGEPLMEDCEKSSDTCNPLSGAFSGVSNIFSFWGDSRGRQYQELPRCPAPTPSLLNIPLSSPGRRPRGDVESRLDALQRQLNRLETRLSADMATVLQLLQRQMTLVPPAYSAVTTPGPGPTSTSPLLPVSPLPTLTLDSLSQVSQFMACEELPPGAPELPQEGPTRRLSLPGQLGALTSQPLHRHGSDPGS

[8] = Toxicity in CD1 mouse assessed as inhibition of intestinal transit by measuring percentage of distance traveled by charcoal meal at 40 mg/kg, po; type: organism-based; conditions: in vivo
[9] = target: T2, CYP1A2 (Homo sapiens, UniProt P05177); assay: Inhibition of human CYP1A2 at 1 uM relative to control; type: ADME
T2 sequence (P05177 whole entry): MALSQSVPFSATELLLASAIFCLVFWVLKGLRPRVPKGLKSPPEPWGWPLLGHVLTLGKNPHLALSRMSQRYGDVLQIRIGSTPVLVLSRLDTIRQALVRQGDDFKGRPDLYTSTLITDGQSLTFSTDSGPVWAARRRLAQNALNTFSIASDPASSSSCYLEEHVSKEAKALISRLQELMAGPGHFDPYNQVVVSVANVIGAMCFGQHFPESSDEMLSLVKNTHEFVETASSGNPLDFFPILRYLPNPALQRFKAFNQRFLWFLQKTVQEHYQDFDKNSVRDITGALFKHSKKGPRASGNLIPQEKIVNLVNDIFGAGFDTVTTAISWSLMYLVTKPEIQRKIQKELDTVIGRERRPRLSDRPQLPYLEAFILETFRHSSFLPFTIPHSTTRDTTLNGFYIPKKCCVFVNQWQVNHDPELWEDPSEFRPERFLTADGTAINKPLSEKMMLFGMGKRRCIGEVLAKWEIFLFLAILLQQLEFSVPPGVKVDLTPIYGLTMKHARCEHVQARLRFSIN

[10] = Distribution coefficient, logD of compound at pH 7.4; type: physicochemical; conditions: octanol/water
[11] = target: CYP2C19 (Homo sapiens, UniProt P33261); assay: Inhibition of human CYP2C19 at 1 uM relative to control; type: ADME
Chain of CYP2C19 (P33261 whole entry): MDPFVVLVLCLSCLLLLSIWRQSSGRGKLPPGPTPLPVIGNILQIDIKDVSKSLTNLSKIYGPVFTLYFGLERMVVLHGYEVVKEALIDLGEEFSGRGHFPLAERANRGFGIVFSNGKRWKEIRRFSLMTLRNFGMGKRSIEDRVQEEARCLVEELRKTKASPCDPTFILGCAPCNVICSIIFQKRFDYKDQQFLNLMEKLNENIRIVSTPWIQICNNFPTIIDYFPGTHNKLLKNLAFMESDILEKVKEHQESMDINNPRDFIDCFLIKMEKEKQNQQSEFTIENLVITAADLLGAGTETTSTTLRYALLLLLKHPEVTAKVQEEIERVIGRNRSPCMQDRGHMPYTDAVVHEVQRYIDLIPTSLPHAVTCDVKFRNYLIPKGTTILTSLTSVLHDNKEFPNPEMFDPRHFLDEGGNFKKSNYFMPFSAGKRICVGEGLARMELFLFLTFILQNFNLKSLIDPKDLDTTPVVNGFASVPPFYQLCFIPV

[12] = target: Voltage-gated inwardly rectifying potassium channel KCNH2 (Homo sapiens, UniProt Q12809)
Chain of Voltage-gated inwardly rectifying potassium channel KCNH2 (Q12809 whole entry): as the sequence (Q12809 whole entry) above
Description: Inhibition of human ERG expressed in CHO cells at -80 mV holding potential by whole cell patch clamp assay

[13] = Toxicity in CD1 mouse PSNL model assessed as induction of opiate withdrawal by measuring expression of some behavioral signs measured immediately after naloxone injection at 5 mg/kg, ip BID for 11 days from day 13 to day 22 and measured on day 23; type: organism-based; conditions: in vivo, 264 h, time 11 day
[14] = system: Mus musculus; assay: Antinociceptive activity in orally dosed CD1 mouse assessed as by paw pressure test; type: functional; conditions: CD1, po
[15] = target: CYP3A4 (Homo sapiens, UniProt P08684); assay: Inhibition of human CYP3A4 at 1 uM relative to control; type: ADME
Chain of CYP3A4 (P08684 whole entry): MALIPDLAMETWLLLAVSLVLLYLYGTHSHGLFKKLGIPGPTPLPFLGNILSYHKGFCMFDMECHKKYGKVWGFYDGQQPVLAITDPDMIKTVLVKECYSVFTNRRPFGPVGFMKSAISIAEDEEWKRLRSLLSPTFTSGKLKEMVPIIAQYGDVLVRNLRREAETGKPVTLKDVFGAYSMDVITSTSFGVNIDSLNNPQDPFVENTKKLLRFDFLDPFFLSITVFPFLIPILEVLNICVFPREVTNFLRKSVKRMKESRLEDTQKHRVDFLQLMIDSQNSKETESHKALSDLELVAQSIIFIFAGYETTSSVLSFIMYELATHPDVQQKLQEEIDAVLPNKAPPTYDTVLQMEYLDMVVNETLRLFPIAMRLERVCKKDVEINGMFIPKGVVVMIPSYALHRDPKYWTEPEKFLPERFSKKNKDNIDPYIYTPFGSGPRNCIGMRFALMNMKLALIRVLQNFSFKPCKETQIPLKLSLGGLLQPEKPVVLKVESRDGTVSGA

[16] = Thermodynamic solubility of compound at pH 2; type: physicochemical; conditions: buffer, read-out: Therm_solubility
[17] = Toxicity in CD1 mouse PSNL model assessed as induction of opiate withdrawal by measuring expression of some behavioral signs measured immediately after naloxone injection at 1.25 mg/kg, ip BID for 11 days from day 13 to day 22 and measured on day 23; type: organism-based; conditions: in vivo, 264 h, time 11 day
[18] = Mutagenicity in Salmonella typhimurium by Ames test; type: toxicity; conditions: salmonella enterica subsp. enterica serovar typhimurium
[19] = Lipophilicity, logD of compound; type: physicochemical; conditions: octanol/water
[20] = system: Mus musculus; assay: Antinociceptive activity in CD1 mouse PSNL model assessed as reduction in mechanical allodynia by measuring decrease in the pressure required to elicit withdrawal of the ipsilateral paw after von Frey filament stimulation at 5 mg/kg, ip BID for 11 days from day 13 to day 22; type: functional; conditions: 264 h, time 11 day
[21] = target: CYP2D6 (Homo sapiens, UniProt P10635); assay: Inhibition of human CYP2D6 at 1 uM relative to control; type: ADME
Chain of CYP2D6 (P10635 whole entry): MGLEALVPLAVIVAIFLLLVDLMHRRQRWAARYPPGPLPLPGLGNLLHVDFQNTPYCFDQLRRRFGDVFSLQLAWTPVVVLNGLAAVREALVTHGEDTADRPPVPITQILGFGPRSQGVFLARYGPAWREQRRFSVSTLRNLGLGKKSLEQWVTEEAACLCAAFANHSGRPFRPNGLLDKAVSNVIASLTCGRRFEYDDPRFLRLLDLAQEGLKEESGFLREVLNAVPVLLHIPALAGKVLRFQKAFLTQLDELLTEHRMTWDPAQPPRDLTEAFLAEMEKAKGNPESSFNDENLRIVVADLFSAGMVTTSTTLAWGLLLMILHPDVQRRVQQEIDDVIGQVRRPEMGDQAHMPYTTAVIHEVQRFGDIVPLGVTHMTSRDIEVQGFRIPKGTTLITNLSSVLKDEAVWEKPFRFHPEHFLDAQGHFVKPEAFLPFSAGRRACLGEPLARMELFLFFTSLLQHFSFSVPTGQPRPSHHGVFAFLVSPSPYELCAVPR

[22] = system: HepG2; assay: Toxicity in human HepG2 cells assessed as reduction in cell viability up to 100 uM by MTT assay; type: cell-based
[23] = target: CYP2C9 (Homo sapiens, UniProt P11712); assay: Inhibition of human CYP2C9 at 1 uM relative to control; type: ADME
Chain of CYP2C9 (P11712 whole entry): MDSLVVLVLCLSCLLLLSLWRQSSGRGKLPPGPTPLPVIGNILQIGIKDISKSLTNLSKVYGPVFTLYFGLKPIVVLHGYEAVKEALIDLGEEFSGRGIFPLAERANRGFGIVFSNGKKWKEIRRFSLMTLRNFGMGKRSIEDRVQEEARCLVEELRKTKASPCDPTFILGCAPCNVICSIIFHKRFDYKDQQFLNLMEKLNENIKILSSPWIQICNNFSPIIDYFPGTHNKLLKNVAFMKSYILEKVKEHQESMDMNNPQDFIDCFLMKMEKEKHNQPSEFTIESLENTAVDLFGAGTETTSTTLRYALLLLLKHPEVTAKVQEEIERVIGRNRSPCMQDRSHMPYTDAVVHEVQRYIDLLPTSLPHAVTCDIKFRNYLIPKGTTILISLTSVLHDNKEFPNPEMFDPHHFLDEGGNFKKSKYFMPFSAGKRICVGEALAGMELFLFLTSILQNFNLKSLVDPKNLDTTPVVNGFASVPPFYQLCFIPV

For `CCN1CC2(CCN(CCc3cc(F)ccc3F)CC2)O[C@H](C)C1=O`, the inhibition [1] was 21%, the solubility thermodynamic [2] was 17.7 mg/mL (≈ 50.2 mM) and the Activity [3] was “Non-Toxic”. It also gave an Emax [4] of 40%, a microsomal CLint [5] of 2.4 µL/min/mg and a Papp [6] of 34.9 ×10⁻⁶ cm/s. The inhibition at 10 µM [7] was under 50%, the Activity [8] was “Non-Toxic” and the inhibition at 1 µM [9] was under 50%. For the same compound, the logD [10] was 2, the inhibition at 1 µM [11] was under 50% and the IC50 [12] was over 10 µM. The Activity [13] was “Non-Toxic”, the Emax [14] was 64% and the inhibition at 1 µM [15] was under 50%. For the same compound, the solubility thermodynamic [16] was 45.1 mg/mL (≈ 128 mM), the Activity [17] was “Non-Toxic” and the Activity [18] was “Non-Toxic”. The logD [19] was 2.7, the inhibition in vivo at 5 mg/kg [20] was 56% and the inhibition at 1 µM [21] was under 50%. For the same compound, the Activity [22] was “Non-Toxic” and the inhibition at 1 µM [23] was under 50%.
